Assay results reported in US11717508B2, “Compounds, compositions, and methods for inhibiting bacterial growth” (priority 2016, dated 2023).
“And” between values parts separate entries of the source, which are not always exact repeats. Equal entries are not always repeated. Where two headings read alike, the source gives them in different places.

Test system: DosRST regulon
Assay type: cell-based
Details: for Counts per million (CPM) WT_HC103A: replicates 1, 2

O=C(Nc1cccc(O)c1)c1cccc(NC(=O)c2cccs2)c1 [HC103A, N-[3-[(3 hydroxyphenyl)carbamoyl]phenyl]thiophene-2-carboxamide]
genes downregulated by compound (total) (40 μM, 6 days, >2-fold, p<0.05): 90 genes
downregulation of tgs1 gene (transcriptional profiling) (CDC1551, 40 μM, 6 days): ~180 fold
WT DMSO/WT HC103A fold change (gene MT36S5 Rv3551): 0.4042
log2 Fold change (gene MT36S5 Rv3551): −1.307
WT DMSO/WT HC103A fold change (gene MT0086 Rv0079): 0.2341
log2 Fold change (gene MT0086 Rv0079): −2.095
WT DMSO/WT HC103A fold change (gene MT0087 Rv0080): 0.2783
log2 Fold change (gene MT0087 Rv0080): −1.845
WT DMSO/WT HC103A fold change (gene MT0207 Rv0197): 3.65
log2 Fold change (gene MT0207 Rv0197): 1.868
WT DMSO/WT HC103A fold change (gene MT0337 Rv0322 udgA): 2.459
log2 Fold change (gene MT0337 Rv0322 udgA): 1.298
WT DMSO/WT HC103A fold change (gene MT0468 Rv0452): 2.465
log2 Fold change (gene MT0468 Rv0452): 1.301
WT DMSO/WT HC103A fold change (gene MT0491 Rv0474): 2.323
log2 Fold change (gene MT0491 Rv0474): 1.216
WT DMSO/WT HC103A fold change (gene MT0585 Rv0559c): 5.989
log2 Fold change (gene MT0585 Rv0559c): 2.582
WT DMSO/WT HC103A fold change (gene MT0586 Rv0560c): 282
log2 Fold change (gene MT0586 Rv0560c): 8.139
WT DMSO/WT HC103A fold change (gene MT0595 Rv0569): 0.1236
log2 Fold change (gene MT0595 Rv0569): −3.016
WT DMSO/WT HC103A fold change (gene MT0596 Rv0570 nrdZ): 0.02807
log2 Fold change (gene MT0596 Rv0570 nrdZ): −5.155
Counts per million (CPM) WT_HC103A (gene MT0596 Rv0570 nrdZ): 73.81 CPM and 59.09 CPM
WT DMSO/WT HC103A fold change (gene MT0597 Rv0571c): 0.1705
log2 Fold change (gene MT0597 Rv0571c): −2.552
Counts per million (CPM) WT_HC103A (gene MT0597 Rv0571c): 71.16 CPM and 45.13 CPM
WT DMSO/WT HC103A fold change (gene MT0598): 0.1036
log2 Fold change (gene MT0598): −3.27
Counts per million (CPM) WT_HC103A (gene MT0598): 38.26 CPM and 19.74 CPM
WT DMSO/WT HC103A fold change (gene MT0599 Rv0572c): 0.05128
log2 Fold change (gene MT0599 Rv0572c): −4.028
Counts per million (CPM) WT_HC103A (gene MT0599 Rv0572c): 49.68 CPM and 34.61 CPM
WT DMSO/WT HC103A fold change (gene MT0600): 0.02301
log2 Fold change (gene MT0600): −5.442
Counts per million (CPM) WT_HC103A (gene MT0600): 44.59 CPM and 9.221 CPM
WT DMSO/WT HC103A fold change (gene MT0601 Rv0573c): 0.1124
log2 Fold change (gene MT0601 Rv0573c): −3.153
Counts per million (CPM) WT_HC103A (gene MT0601 Rv0573c): 11.49 CPM and 9.546 CPM
WT DMSO/WT HC103A fold change (gene MT0602 Rv0574c): 0.05787
log2 Fold change (gene MT0602 Rv0574c): −4.111
Counts per million (CPM) WT_HC103A (gene MT0602 Rv0574c): 26.39 CPM and 16.69 CPM
WT DMSO/WT HC103A fold change (gene MT0808 Rv0784): 4.409
log2 Fold change (gene MT0808 Rv0784): 2.141
WT DMSO/WT HC103A fold change (gene MT0846 Rv0824c desA1): 0.3753
log2 Fold change (gene MT0846 Rv0824c desA1): −1.414
Counts per million (CPM) WT_HC103A (gene MT0846 Rv0824c desA1): 2,581.69 CPM and 3,416.39 CPM
WT DMSO/WT HC103A fold change (gene MT0910 Rv0887c): 2.543
log2 Fold change (gene MT0910 Rv0887c): 1.346
WT DMSO/WT HC103A fold change (gene MT1095 Rv1065): 0.3758
log2 Fold change (gene MT1095 Rv1065): −1.412
Counts per million (CPM) WT_HC103A (gene MT1095 Rv1065): 198.5 CPM and 168.6 CPM
WT DMSO/WT HC103A fold change (gene MT1126 Rv1094 desA2): 0.3586
log2 Fold change (gene MT1126 Rv1094 desA2): −1.44
Counts per million (CPM) WT_HC103A (gene MT1126 Rv1094 desA2): 2,249.03 CPM and 2,771.69 CPM
WT DMSO/WT HC103A fold change (gene MT1294 Rv1255c): 3.371
log2 Fold change (gene MT1294 Rv1255c): 1.753
WT DMSO/WT HC103A fold change (gene MT1322 Rv1284): 0.3386
log2 Fold change (gene MT1322 Rv1284): −1.562
Counts per million (CPM) WT_HC103A (gene MT1322 Rv1284): 223.7 CPM and 205.3 CPM
WT DMSO/WT HC103A fold change (gene MT1608 Rv1557 mmpL6): 8.81
log2 Fold change (gene MT1608 Rv1557 mmpL6): 3.139
WT DMSO/WT HC103A fold change (gene MT1692 Rv1654 argB): 0.2745
log2 Fold change (gene MT1692 Rv1654 argB): −1.865
Counts per million (CPM) WT_HC103A (gene MT1692 Rv1654 argB): 176.3 CPM and 60.13 CPM
WT DMSO/WT HC103A fold change (gene MT1693 Rv1655 argD): 0.2592
log2 Fold change (gene MT1693 Rv1655 argD): −1.948
Counts per million (CPM) WT_HC103A (gene MT1693 Rv1655 argD): 135.1 CPM and 51.69 CPM
WT DMSO/WT HC103A fold change (gene MT1694 Rv1656 argF): 0.214
log2 Fold change (gene MT1694 Rv1656 argF): −2.224
Counts per million (CPM) WT_HC103A (gene MT1694 Rv1656 argF): 115.2 CPM and 42.01 CPM
WT DMSO/WT HC103A fold change (gene MT1774 Rv1733c): 0.01521
log2 Fold change (gene MT1774 Rv1733c): −6.039
Counts per million (CPM) WT_HC103A (gene MT1774 Rv1733c): 40.51 CPM and 8.961 CPM
WT DMSO/WT HC103A fold change (gene MT1775): 0.1012
log2 Fold change (gene MT1775): −3.305
Counts per million (CPM) WT_HC103A (gene MT1775): 101.9 CPM and 24.16 CPM
WT DMSO/WT HC103A fold change (gene MT1776 Rv1735c): 0.2125
log2 Fold change (gene MT1776 Rv1735c): −2.234
Counts per million (CPM) WT_HC103A (gene MT1776 Rv1735c): 4.991 CPM and 2.922 CPM
WT DMSO/WT HC103A fold change (gene MT1777): 0.02322
log2 Fold change (gene MT1777): −5.428
Counts per million (CPM) WT_HC103A (gene MT1777): 5.142 CPM and 2.013 CPM
WT DMSO/WT HC103A fold change (gene MT1778 Rv1736c narX): 0.0157
log2 Fold change (gene MT1778 Rv1736c narX): −5.993
Counts per million (CPM) WT_HC103A (gene MT1778 Rv1736c narX): 122.3 CPM and 26.17 CPM
WT DMSO/WT HC103A fold change (gene MT1779 Rv1737c narK2): 0.01434
log2 Fold change (gene MT1779 Rv1737c narK2): −6.124
Counts per million (CPM) WT_HC103A (gene MT1779 Rv1737c narK2): 36.9 CPM and 14.55 CPM
WT DMSO/WT HC103A fold change (gene MT1780 Rv1738): 0.01855
log2 Fold change (gene MT1780 Rv1738): −5.752
Counts per million (CPM) WT_HC103A (gene MT1780 Rv1738): 133.5 CPM and 33.12 CPM
WT DMSO/WT HC103A fold change (gene MT1823 (Rv1773c)): 0.36
log2 Fold change (gene MT1823 (Rv1773c)): −1.434
Counts per million (CPM) WT_HC103A (gene MT1823 Rv1773c): 222.7 CPM and 163.7 CPM
WT DMSO/WT HC103A fold change (gene MT1851 Rv1813c): 0.01771
log2 Fold change (gene MT1851 Rv1813c): −5.819
Counts per million (CPM) WT_HC103A (gene MT1851 Rv1813c): 58.53 CPM and 24.74 CPM
WT DMSO/WT HC103A fold change (gene MT1860 Rv1812c): 0.3778
log2 Fold change (gene MT1860 Rv1812c): −1.404
Counts per million (CPM) WT_HC103A (gene MT1860 Rv1812c): 78.19 CPM and 78.7 CPM
WT DMSO/WT HC103A fold change (gene MT1882 (Rv1834)): 0.3504
log2 Fold change (gene MT1882 (Rv1834)): −1.472
Counts per million (CPM) WT_HC103A (gene MT1882 Rv1834): 28.36 CPM and 29.22 CPM
WT DMSO/WT HC103A fold change (gene MT1986 (Rv1936)): 0.2546
log2 Fold change (gene MT1986 (Rv1936)): −1.918
Counts per million (CPM) WT_HC103A (gene MT1986 Rv1936): 72.29 CPM and 31.56 CPM
WT DMSO/WT HC103A fold change (gene MT1987 (Rv1937)): 0.2435
log2 Fold change (gene MT1987 (Rv1937)): −2.038
Counts per million (CPM) WT_HC103A (gene MT1987 Rv1937): 83.71 CPM and 36.75 CPM
WT DMSO/WT HC103A fold change (gene MT1988 Rv1938 ephB): 0.2508
log2 Fold change (gene MT1988 Rv1938 ephB): −1.995
Counts per million (CPM) WT_HC103A (gene MT1988 Rv1938 ephB): 32.14 CPM and 15.97 CPM
WT DMSO/WT HC103A fold change (gene MT1989 (Rv1939)): 0.2883
log2 Fold change (gene MT1989 (Rv1939)): −1.794
Counts per million (CPM) WT_HC103A (gene MT1989 Rv1939): 16.33 CPM and 8.831 CPM
WT DMSO/WT HC103A fold change (gene MT2016 (Rv1964)): 0.2736
log2 Fold change (gene MT2016 (Rv1964)): −1.87
Counts per million (CPM) WT_HC103A (gene MT2016 Rv1964): 93.32 CPM and 56.95 CPM
WT DMSO/WT HC103A fold change (gene MT2017): 0.1841
log2 Fold change (gene MT2017): −2.441
Counts per million (CPM) WT_HC103A (gene MT2017): 44.46 CPM and 29.87 CPM
WT DMSO/WT HC103A fold change (gene MT2018 (Rv1966 mce3)): 0.194
log2 Fold change (gene MT2018 (Rv1966 mce3)): −2.366
Counts per million (CPM) WT_HC103A (gene MT2018 Rv1966 mce3): 54.83 CPM and 33.77 CPM
